In PMC6981454, “Promising 2,6,9-Trisubstituted Purine Derivatives for Anticancer Compounds: Synthesis, 3D-QSAR, and Preliminary Biological Assays” (International Journal of Molecular Sciences, 2019) one finds IC50 and apoptotic cells data, which are given here for one compound.

One test has as its system CACO2. Put plainly: MTT cytotoxicity assay, 72 h. Conditions: Homo sapiens, Caco-2, IC50 ± SD. The class given is cell-based, human.
For the next test, the system named is HL-60 cells. Description: Cell viability by propidium iodide flow cytometry. The class given is cell-based, human. The settings on record: HL-60, 50 μM, 24 h, PI staining.

`O=[N+]([O-])c1ccc(N2CCN(c3nc(Cl)nc4c3ncn4C3CCCC3)CC2)cc1` [7h, 2-Chloro-9-cyclopentyl-6-(4-(4-nitrophenyl)piperazin-1-yl)-9H-purine] had an IC50 with CACO2 of over 100 µM. This compound displayed an apoptotic cells in the test with HL-60 cells of about 30%.
